Assay results taken from patent US5525627A, “Esters of acyl carnitines with long-chain aliphatic alcohols and pharmaceutical compositions containing same having antimycotic activity” (Sigma-Tau Industrie Farmaceutiche Riunite S.p.A., priority 1992, dated 1996).
Several values for one entry are separate records, joined by “and”; a condition that tells them apart may be missing. Equal values may be shown once.

Key:
[1] = test system: antibody-producer B lymphocytes (spleen); test: Test 1: primary antibody production (Jerne test) in spleen of SRBC immunized mice; assay type: in vivo, mice (male B6 D2F1)
Method: Test 1: Evaluation of the "in vitro-ex vivo" effect of repeated oral administrations of ST 722 on the primary antibody production (Jerne test) in the spleen of SRBC (Sheep Red Blood Cells) immunized mice.
Male B6 D2F1 mice (C. River) aged 8 weeks (6 animals each group) were utilized.
The substance (ST 722) was administered per os at the dose of 100 mg/kg/day from day -2 through day +2 (immunization at day 0). The animals were immunized by intraperitoneal route with a concentration of 1.0×10^8 cells/mouse in 0.2 ml of sterile saline.
Five days later, spleens to be submitted to teasing process were removed from the animals sacrificed by cervical dislocation. After standardization at 1.0×10^7 cells/ml. the splenocytes (0.1 ml) were mixed with warm agar-Hank's (2 ml) and 10% SRBC in PBS (0.2 ml) and seeded in Petri dishes (samples tested in triplicates) and incubated at 37° C. for 60 min.
After addition of complement (2 ml of guinea pig serum diluted 1:10 in Tris buffer), samples were further incubated at 37° C. for 30 min. To block the haemolysis reaction, the Petri dishes were cooled at 4° C. and the haemolysis plaques were counted.
The antibody response to SRBC is expressed as number of plaque forming cells (PFC) per 1.0×10^6 splenocytes as well as per spleen.

[2] = test system: spleen, thymus and splenocytes; test: Test 3: body, spleen and thymus weight and splenocyte concentration; assay type: in vivo, mice (male B6 D2 F1); conditions: 100 mg/kg/day oral, 5 consecutive days
Method: Test 3: Evaluation of the effect of repeated oral administrations of ST 722 on the body, spleen and thymus weight, and on the splenocyte concentration in mice.
Male B6 D2 F1 mice (C. River) aged 10 weeks (5 animals each group) were orally treated with the substance ST 722 at the dose of 100 mg/kg/day for 5 consecutive days. Twenty-four hours after the last administration, the animals were sacrificed, the organs removed and weighed, and the splenocyte number determined.

Candida albicans (PG) = test: MIC and MFC for yeast and yeast-like strains; assay type: cell-based
In short: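 Candida, Cryptococcus, Saccharomyces and Torulopsis strains tested by broth microdilution in Yeast Nitrogen Base with 0.15% asparagine and 1.0% glucose, buffered with 0.165 M MOPS; final inoculum about 5.0×10^4 CFU/ml from overnight (Cryptococcus 48-hour) Sabouraud cultures. MFC from spot-transfer of wells without visible growth onto Sabouraud agar.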

dermatophytic fungi = test: MIC / MFC for dermatophytic fungi, all strains; assay type: cell-based, Trichophyton, Microsporum, Epidermophyton; conditions: versus susceptible strains
Method: The following strains were used: Trichophyton menthagrophytes ATCC 9533, Trichophyton rubrum IHEM 4274, Microsporum canis IHEM 3522, Epydermophyton floccosum IHEM 3495. The tested substances were: ST 722, ST 1033, ST 1037, ST 1050, ST 1051, ST 1052,. ST 1053.
The assay was performed following the same procedure described for the yeasts, by using 7-day fungi cultures grown at 30° C. in Potato Dextrose agar, and harvested with Sabouraud broth and Tween 80 (0.5%).
After washing with Yeast Nitrogen Base, supplemented with asparagine and glucose (as carbon source), the fungal suspension was fragmented using a tissue grinder until the largest clumps or aggregates were undetectable within the grinder. This fungal suspension was then appropriately diluted in YNB to yield a concentration of 2.0×10^5 infective particles/ml (small mycelium fragments, micro-and macroaleuriospores).
Volumes of 100 μl both of the fungal suspensions and substance solutions, two-fold serially diluted in assay medium, were distributed into each well of a microtiter plate (96 wells, round bottom), which was incubated at 35° C. for 96 hours.

C. albicans ISS 1 = test: Experimental subcutaneous infection with Candida albicans in mice; assay type: in vivo, Candida albicans in mice (male CD1 outbred)
Method: Male CD1 outbred mice (IFFA Credo) aged 8 weeks were used (4 animals per group).
A pathogenic strain of Candida was used, namely C. albicans ISS 1.
The infected animals were treated with ST 722 dissolved in saline, and Miconazole diluted in saline from a stock solution containing 1% Dimethyl Formamide.
From an overnight broth culture of C. albicans in Sabouraud broth, a fungal suspension was prepared in sterile saline containing 5.0×10^5 cells/mi. An inoculum of 0.5 ml of this suspension was injected subcutaneously into the abdominal wall of each animal.
The compounds were then administered by subcutaneous injection in the same area of the fungal challenge at the dose of 50 mcg (in 0.2 ml of saline) immediately after the inoculum and following 48 and 96 hours (150 total mcg per animal).
Then, 48 hours following the last treatment (6 days after the challenge with Candida), the animals were sacrificed, and the abdominal wall as well as the peritoneum were dissected out.
The excised tissues were then homogenized in 5 ml of sterile saline with a Potter-Elvehjem tissue grinder. The resulting suspensions, appropriately diluted, where plated onto Petri dishes containing a selective agar medium (BIGGY agar), which allows to easily detect the yeast Colony Forming Units (CFU/ml).
The number of colonies scored in a series of dilutions for each single sample consents to calculate the number of yeast cells present in the infected tissue sample as follows: [formula] Where Zi is the number of dilutions performed, Ni is the number of plates prepared for each dilution, and Ci is the total number of yeast cells scored in each dilution.

[3] = 100 mg/kg/day per os, day -2 through day +2, x ± S.E.

CCCCCCCCCCCOC(=O)C[C@H](C[N+](C)(C)C)OC(=O)CC(C)C [ST 722, isovaleryl-L-carnitine undecyl ester chloride]
PFC/10^6 cells [1, 3]: 261 ± 34 PFC/10^6 cells
PFC/spleen [1, 3]: 44440 ± 6087 PFC/spleen
PFC number after antigenic challenge ([1]; 5 consecutive days oral): did not cause a statistically significant modification in PFC number
specific immunotoxic effects on the considered parameters [2]: lack of specific immunotoxic effects
Body weight ([2]; x ± S.E.): 26.50 ± 0.53 g
Spleen weight ([2]; x ± S.E.): 73.25 ± 3.84 mg
Thymus weight ([2]; x ± S.E.): 38.80 ± 3.01 mg
MFC (Candida albicans (PG); 48 h, C. albicans PG): 3.12 µg/mL
MIC (Candida albicans (PG); 48 hours, 35° C., read-out: Minimal Inhibitory Concentration (MIC)): 3.12 µg/mL
MIC (dermatophytic fungi): 28.1 µg/mL
CFU/mouse (C. albicans ISS 1; individual samples 1-4, 50 mcg s.c. at 0, 48 and 96 hours (150 total mcg per animal)): sterile and 1.36 × 10^2 CFU/mouse
effect on the infection with Candida (C. albicans ISS 1; s.c., 150 total mcg per animal): substantially inhibits the infection with Candida
sterile samples out of 4 (C. albicans ISS 1; s.c., 150 total mcg per animal): 3 samples
